Values after ≈ are worked out from the molar mass of the structure shown. “Also recorded” adds a separate entry of the source. A value given as a limit tells only on which side of the number the result lay.

What all share (type): physicochemical
A short description of series [1]: Approximate solubility of Form A in 20 single solvents at RT. To be noted: thermodynamic from solid. The method, then:
Approximate solubility of Form A was determined in 20 single solvents at RT, respectively. Approximately 2 mg of Form A was added into a 3-mL glass vial. Corresponding solvents were added stepwise (50 μL-50 μL-200 μL-700 μL) into the vials until the solids were dissolved visually or a total volume of 1 mL was reached. The ranges of approximate solubility were calculated according to the mass of sample, volume of solvent and observation. The results summarized in Table 2 were used to guide the solvent selection in polymorph screening.

The nature of series [2]: Slurry competition of the six anhydrates in n-butanol (thermodynamic assessment). To be noted: all anhydrates in equal mass ratios, RT and 50° C. Here is the method: A total of six anhydrates, Forms A, C, D, E, N, and Q were observed. A thermodynamic assessment of all anhydrates was performed by slurrying all anhydrates in equal mass ratios in a non-solvating solvent, n-Butanol, at RT and 50° C.

A short description of series [3]: Slurry competition of Form K and Form C at various water activities (critical water activity). To be noted: for Relative stability, Form K vs Form C slurry: EtOH/H2O. From the text: One hydrate (Form K) was observed and found to be a hemi-hydrate. […] It was suspected that EtOH may be forming a solvate that favors the formation of Form K because at higher water activities, the hydrate should be more thermodynamically stable. The values and results for obtaining the critical water activity follows the laws of thermodynamics and the results obtained from this experiment can be transferred to another solvent/H2O system. Additional critical water activity experiments were performed in acetone/H2O at Aw=0.5 and 0.9 using Form K and Form C.

Series [4] can be described thus: Ambient drying of wet cake solids, form followed by XRPD. Here is the method: Form A obtained from anti-solvent addition in ACN/H2O was further investigated by analyzing the wet solids by XRPD. The sample was covered with 3511 Kapton film to minimize the solvent evaporation from the wet cake. A unique pattern, different from Form A was observed indicating a labile solvate phase forms in this solvent system.
Form B was obtained by temperature cycling in IPA. The formation of Form B was also observed in IPA slurry at RT and 60° C. Form B was further characterized by analyzing the wet cake by XRPD. The sample on the XRPD sample holder was covered by 3511 Kapton Film to minimize the solvent evaporation from the sample. […] Comparing the KF and TGA results, it was concluded that Form B is an IPA solvate, more specifically, a hemi-solvate determined by calculating the API:Solvent stoichiometry from the TGA weight loss to be 1:0.6.
Form D was obtained by temperature cycling in toluene. The formation of Form D was also observed in 60° C. slurry and slow cooling using toluene. Form D was further characterized by analyzing the wet solids by XRPD. The sample on the XRPD sample holder was covered by 3511 Kapton Film to minimize the solvent evaporation from the sample. […] The minimal weight loss observed indicated an anhydrous phase.
Form E was obtained by temperature cycling in IPAc/MTBE (1:3 v/v). The formation of Form E was also observed in anti-solvent addition, crash cooling, and slurry at RT experiments using MTBE, 2-MeTHF, or toluene. Form E was further characterized by analyzing the wet solids by XRPD. The sample on the XRPD sample holder was covered by 3511 Kapton Film to minimize the solvent evaporation from the sample. […] The minimal weight loss observed indicated an anhydrous phase.
Form F was obtained by temperature cycling in THF/H2O (0.92/0.08 v/v Aw=0.2). The formation of Form F was also observed in RT slurry in THF/H2O at Aw=0.4 and 0.6, and in temperature cycling in THF/H2O (1:3). Form F was further characterized by analyzing the wet solids by XRPD. The sample on the XRPD sample holder was covered by 3511 Kapton film to minimize the solvent evaporation. […] Comparing the KF and TGA results, it was concluded that Form F is likely a THF solvate.

By solubility is commonly meant the concentration that dissolves in the medium under given conditions. On to `CC(=O)N/C(N)=N/C(=N\S(=O)(=O)c1ccc(C(F)(F)F)cc1)N1C[C@H](c2ccccc2)C(c2ccc(Cl)cc2)=N1` [Form A, N-{[(S)-{[3-(4-chlorophenyl)-4-phenyl-4,5-dihydro-1H-pyrazol-1-yl][4-(trifluoromethyl)benzenesulfonamido]methylidene}amino]methanimidoyl}acetamide], for which the solubility in series [1] (Anisole, organic solvent or mixture) is greater than 10000 µg/mL; in series [1] (EtOH, organic solvent or mixture), greater than 10000 µg/mL; in series [1] (IPA, organic solvent or mixture), less than 3000 µg/mL; in series [1] (MTBE, organic solvent or mixture) it was less than 3000 µg/mL; in series [1] (Toluene, organic solvent or mixture), 2000 to 10000 µg/mL (≈ 3.38 to 16.9 mM); in series [1] (Water), less than 3000 µg/mL. Moreover, in series [1] (n-heptane, organic solvent or mixture), the solubility is less than 3000 µg/mL. In series [2], the “Relative thermodynamic stability of anhydrates (outcome of slurry competition)” value (“Relative thermodynamic stability” for short) was “conversion of all anhydrates to Form C”.
For `CC(=O)N/C(N)=N/C(=N\S(=O)(=O)c1ccc(C(F)(F)F)cc1)N1C[C@H](c2ccccc2)C(c2ccc(Cl)cc2)=N1` [Form C, N-{[(S)-{[3-(4-chlorophenyl)-4-phenyl-4,5-dihydro-1H-pyrazol-1-yl][4-(trifluoromethyl)benzenesulfonamido]methylidene}amino]methanimidoyl}acetamide], the “Relative thermodynamic stability” value in series [2] is listed as “thermodynamically most stable anhydrous form; also recorded: most stable anhydrate”. For the same compound, in series [3] (Aw>0.9, equal mass ratios), the “Relative stability, Form K vs Form C slurry” value is recorded as “more stable”.
On to `CC(=O)N/C(N)=N/C(=N\S(=O)(=O)c1ccc(C(F)(F)F)cc1)N1C[C@H](c2ccccc2)C(c2ccc(Cl)cc2)=N1` [Form D, N-{[(S)-{[3-(4-chlorophenyl)-4-phenyl-4,5-dihydro-1H-pyrazol-1-yl][4-(trifluoromethyl)benzenesulfonamido]methylidene}amino]methanimidoyl}acetamide], for which the “Relative thermodynamic stability” value in series [2] was “conversion of all anhydrates to Form C”.
For the compound `CC(=O)N/C(N)=N/C(=N\S(=O)(=O)c1ccc(C(F)(F)F)cc1)N1C[C@H](c2ccccc2)C(c2ccc(Cl)cc2)=N1` [Form E, N-{[(S)-{[3-(4-chlorophenyl)-4-phenyl-4,5-dihydro-1H-pyrazol-1-yl][4-(trifluoromethyl)benzenesulfonamido]methylidene}amino]methanimidoyl}acetamide], the “Relative thermodynamic stability” value in series [2] is reported as “conversion of all anhydrates to Form C”.
For the compound `CC(=O)N/C(N)=N/C(=N\S(=O)(=O)c1ccc(C(F)(F)F)cc1)N1C[C@H](c2ccccc2)C(c2ccc(Cl)cc2)=N1` [Form G, N-{[(S)-{[3-(4-chlorophenyl)-4-phenyl-4,5-dihydro-1H-pyrazol-1-yl][4-(trifluoromethyl)benzenesulfonamido]methylidene}amino]methanimidoyl}acetamide], the “Solid form conversion upon ambient drying” value in series [4] was “converted to Form F”.
`CC(=O)N/C(N)=N/C(=N\S(=O)(=O)c1ccc(C(F)(F)F)cc1)N1C[C@H](c2ccccc2)C(c2ccc(Cl)cc2)=N1` [Form H, N-{[(S)-{[3-(4-chlorophenyl)-4-phenyl-4,5-dihydro-1H-pyrazol-1-yl][4-(trifluoromethyl)benzenesulfonamido]methylidene}amino]methanimidoyl}acetamide]: in series [4], the “Solid form conversion upon ambient drying” value is “converted to Form D”.
On to `CC(=O)N/C(N)=N/C(=N\S(=O)(=O)c1ccc(C(F)(F)F)cc1)N1C[C@H](c2ccccc2)C(c2ccc(Cl)cc2)=N1` [Form I, N-{[(S)-{[3-(4-chlorophenyl)-4-phenyl-4,5-dihydro-1H-pyrazol-1-yl][4-(trifluoromethyl)benzenesulfonamido]methylidene}amino]methanimidoyl}acetamide], for which the “Solid form conversion upon ambient drying” value in series [4] is listed as “converted to Form B”.
Consider `CC(=O)N/C(N)=N/C(=N\S(=O)(=O)c1ccc(C(F)(F)F)cc1)N1C[C@H](c2ccccc2)C(c2ccc(Cl)cc2)=N1` [Form K, N-{[(S)-{[3-(4-chlorophenyl)-4-phenyl-4,5-dihydro-1H-pyrazol-1-yl][4-(trifluoromethyl)benzenesulfonamido]methylidene}amino]methanimidoyl}acetamide], for which the “Stability of the hydrate (conclusion of critical water activity experiments)” value in series [3] is given as “not a stable hydrate”. Moreover, in series [3] (0.1<Aw<0.9, equal mass ratios), the “Relative stability, Form K vs Form C slurry” value was “more stable”. The “Outcome of Form K and Form C slurry” value in series [3] (acetone/H2O, Aw=0.5 and 0.9) is listed as “conversion to Form C”.
For `CC(=O)N/C(N)=N/C(=N\S(=O)(=O)c1ccc(C(F)(F)F)cc1)N1C[C@H](c2ccccc2)C(c2ccc(Cl)cc2)=N1` [Form N, N-{[(S)-{[3-(4-chlorophenyl)-4-phenyl-4,5-dihydro-1H-pyrazol-1-yl][4-(trifluoromethyl)benzenesulfonamido]methylidene}amino]methanimidoyl}acetamide], in series [2], the “Relative thermodynamic stability” value was “conversion of all anhydrates to Form C”.
In the case of `CC(=O)N/C(N)=N/C(=N\S(=O)(=O)c1ccc(C(F)(F)F)cc1)N1C[C@H](c2ccccc2)C(c2ccc(Cl)cc2)=N1` [Form P, N-{[(S)-{[3-(4-chlorophenyl)-4-phenyl-4,5-dihydro-1H-pyrazol-1-yl][4-(trifluoromethyl)benzenesulfonamido]methylidene}amino]methanimidoyl}acetamide], the “Solid form conversion upon ambient drying” value in series [4] is on record as “converted to Form E”.
For `CC(=O)N/C(N)=N/C(=N\S(=O)(=O)c1ccc(C(F)(F)F)cc1)N1C[C@H](c2ccccc2)C(c2ccc(Cl)cc2)=N1` [Form Q, N-{[(S)-{[3-(4-chlorophenyl)-4-phenyl-4,5-dihydro-1H-pyrazol-1-yl][4-(trifluoromethyl)benzenesulfonamido]methylidene}amino]methanimidoyl}acetamide], in series [2], the “Relative thermodynamic stability” value is recorded as “conversion of all anhydrates to Form C”.

Source of the values: patent publication US20250188038A1, “CRYSTALLINE FORMS OF N-{[(S)-{[3-(4-CHLOROPHENYL)-4-PHENYL-4,5-DIHYDRO-1H-PYRAZOL-1-YL][4-(TRIFLUOROMETHYL)BENZENE” (Novo Nordisk A/S, priority 2022, published 2025).
